# In ChEMBL document CHEMBL1201862, “PubChem BioAssay data set” (2004):
# Calls of active or inactive are those of the source.
# Assays:
# [1] = target: Dual specificity mitogen-activated protein kinase kinase 2 (Homo sapiens, UniProt P36507); assay: Navigating the Kinome. Panel member name: MAP2K2; format: functional
# [2] = target: Aurora kinase A (Homo sapiens, UniProt O14965); format: functional;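 note: value from the Navigating the Kinome kinase panel profiling, panel entry STK6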
# [3] = target: Serine/threonine-protein kinase Chk1 (Homo sapiens, UniProt O14757); format: functional;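 note: measured as one member of a kinome-wide kinase profiling panel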
# Serine/threonine-protein kinase Chk1, sequence (O14757 whole entry): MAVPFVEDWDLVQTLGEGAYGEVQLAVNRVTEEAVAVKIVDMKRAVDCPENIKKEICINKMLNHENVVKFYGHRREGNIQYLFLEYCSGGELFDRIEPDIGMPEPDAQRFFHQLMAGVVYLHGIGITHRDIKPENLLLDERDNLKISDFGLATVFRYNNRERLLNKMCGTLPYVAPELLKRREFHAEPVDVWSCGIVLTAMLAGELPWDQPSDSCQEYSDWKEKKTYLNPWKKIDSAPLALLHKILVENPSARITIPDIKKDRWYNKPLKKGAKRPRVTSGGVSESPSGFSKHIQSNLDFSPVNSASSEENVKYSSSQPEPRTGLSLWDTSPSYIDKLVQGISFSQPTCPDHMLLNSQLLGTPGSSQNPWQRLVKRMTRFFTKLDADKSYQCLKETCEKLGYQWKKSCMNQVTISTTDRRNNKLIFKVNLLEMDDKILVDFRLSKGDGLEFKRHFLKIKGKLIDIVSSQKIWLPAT
# [4] = target: Glycogen synthase kinase-3 alpha (Homo sapiens, UniProt P49840); format: functional;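 note: GSK3A result taken from a broad kinome-wide kinase panel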
# [5] = target: Protein kinase C theta type (Homo sapiens, UniProt Q04759); assay: Navigating the Kinome. Panel member name: PRKCQ; format: functional
# Protein kinase C theta type, sequence (Q04759 whole entry): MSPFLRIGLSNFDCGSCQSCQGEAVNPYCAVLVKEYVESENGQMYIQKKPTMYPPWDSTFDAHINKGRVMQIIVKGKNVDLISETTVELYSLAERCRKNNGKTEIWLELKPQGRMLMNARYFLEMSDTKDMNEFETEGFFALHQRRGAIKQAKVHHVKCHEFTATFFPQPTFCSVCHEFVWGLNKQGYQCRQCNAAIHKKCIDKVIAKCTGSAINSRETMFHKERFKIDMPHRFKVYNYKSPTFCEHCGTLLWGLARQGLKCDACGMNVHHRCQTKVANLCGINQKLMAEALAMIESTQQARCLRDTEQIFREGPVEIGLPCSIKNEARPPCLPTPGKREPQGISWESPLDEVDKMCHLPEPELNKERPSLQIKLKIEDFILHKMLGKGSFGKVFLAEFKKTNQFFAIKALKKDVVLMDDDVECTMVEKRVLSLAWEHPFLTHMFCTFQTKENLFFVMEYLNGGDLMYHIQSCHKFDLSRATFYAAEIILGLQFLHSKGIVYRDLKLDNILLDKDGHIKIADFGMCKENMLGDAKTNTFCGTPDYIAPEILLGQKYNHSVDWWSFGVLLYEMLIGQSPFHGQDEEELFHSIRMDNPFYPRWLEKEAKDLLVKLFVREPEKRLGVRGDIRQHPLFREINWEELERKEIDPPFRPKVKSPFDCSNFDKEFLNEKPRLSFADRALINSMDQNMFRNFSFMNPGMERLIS
# [6] = target: Mitogen-activated protein kinase kinase kinase kinase 4 (Homo sapiens, UniProt O95819); format: functional
# Mitogen-activated protein kinase kinase kinase kinase 4, sequence (O95819 whole entry): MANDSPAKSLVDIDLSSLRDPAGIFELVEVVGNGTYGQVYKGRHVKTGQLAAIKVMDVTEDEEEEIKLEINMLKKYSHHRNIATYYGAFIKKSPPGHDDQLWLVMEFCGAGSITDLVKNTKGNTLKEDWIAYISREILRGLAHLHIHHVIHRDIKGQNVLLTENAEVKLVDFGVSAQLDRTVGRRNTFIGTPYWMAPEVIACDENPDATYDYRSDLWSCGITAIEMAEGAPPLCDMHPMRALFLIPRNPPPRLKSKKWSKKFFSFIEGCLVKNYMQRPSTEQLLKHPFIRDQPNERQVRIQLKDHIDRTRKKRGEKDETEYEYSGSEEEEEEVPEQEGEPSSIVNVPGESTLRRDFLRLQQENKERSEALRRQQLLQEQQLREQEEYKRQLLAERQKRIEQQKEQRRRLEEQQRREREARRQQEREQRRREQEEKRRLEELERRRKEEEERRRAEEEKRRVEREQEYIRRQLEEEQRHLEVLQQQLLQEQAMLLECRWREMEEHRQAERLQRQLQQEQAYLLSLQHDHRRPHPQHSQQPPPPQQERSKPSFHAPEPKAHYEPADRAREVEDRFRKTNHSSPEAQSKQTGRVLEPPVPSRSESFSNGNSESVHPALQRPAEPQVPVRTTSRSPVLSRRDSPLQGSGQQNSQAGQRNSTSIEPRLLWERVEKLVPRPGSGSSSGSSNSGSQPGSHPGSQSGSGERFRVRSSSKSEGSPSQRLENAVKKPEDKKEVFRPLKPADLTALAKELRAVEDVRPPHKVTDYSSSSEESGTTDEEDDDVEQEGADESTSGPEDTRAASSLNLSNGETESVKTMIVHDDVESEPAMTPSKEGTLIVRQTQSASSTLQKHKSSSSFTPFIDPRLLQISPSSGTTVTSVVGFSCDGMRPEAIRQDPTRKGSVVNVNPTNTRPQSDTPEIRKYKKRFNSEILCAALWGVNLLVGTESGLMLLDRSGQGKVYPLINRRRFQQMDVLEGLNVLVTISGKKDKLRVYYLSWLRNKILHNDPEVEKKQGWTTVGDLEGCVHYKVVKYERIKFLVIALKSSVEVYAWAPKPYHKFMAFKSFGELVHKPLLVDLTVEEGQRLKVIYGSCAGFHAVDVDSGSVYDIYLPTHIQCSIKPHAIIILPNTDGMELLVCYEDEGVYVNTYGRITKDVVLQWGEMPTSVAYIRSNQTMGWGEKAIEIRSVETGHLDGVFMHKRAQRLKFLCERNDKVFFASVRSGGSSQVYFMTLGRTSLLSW
# [7] = target: Platelet-derived growth factor receptor alpha (Homo sapiens, UniProt P16234); assay: Navigating the Kinome. Panel member name: PDGFRA; format: functional
# Platelet-derived growth factor receptor alpha, sequence (P16234 whole entry): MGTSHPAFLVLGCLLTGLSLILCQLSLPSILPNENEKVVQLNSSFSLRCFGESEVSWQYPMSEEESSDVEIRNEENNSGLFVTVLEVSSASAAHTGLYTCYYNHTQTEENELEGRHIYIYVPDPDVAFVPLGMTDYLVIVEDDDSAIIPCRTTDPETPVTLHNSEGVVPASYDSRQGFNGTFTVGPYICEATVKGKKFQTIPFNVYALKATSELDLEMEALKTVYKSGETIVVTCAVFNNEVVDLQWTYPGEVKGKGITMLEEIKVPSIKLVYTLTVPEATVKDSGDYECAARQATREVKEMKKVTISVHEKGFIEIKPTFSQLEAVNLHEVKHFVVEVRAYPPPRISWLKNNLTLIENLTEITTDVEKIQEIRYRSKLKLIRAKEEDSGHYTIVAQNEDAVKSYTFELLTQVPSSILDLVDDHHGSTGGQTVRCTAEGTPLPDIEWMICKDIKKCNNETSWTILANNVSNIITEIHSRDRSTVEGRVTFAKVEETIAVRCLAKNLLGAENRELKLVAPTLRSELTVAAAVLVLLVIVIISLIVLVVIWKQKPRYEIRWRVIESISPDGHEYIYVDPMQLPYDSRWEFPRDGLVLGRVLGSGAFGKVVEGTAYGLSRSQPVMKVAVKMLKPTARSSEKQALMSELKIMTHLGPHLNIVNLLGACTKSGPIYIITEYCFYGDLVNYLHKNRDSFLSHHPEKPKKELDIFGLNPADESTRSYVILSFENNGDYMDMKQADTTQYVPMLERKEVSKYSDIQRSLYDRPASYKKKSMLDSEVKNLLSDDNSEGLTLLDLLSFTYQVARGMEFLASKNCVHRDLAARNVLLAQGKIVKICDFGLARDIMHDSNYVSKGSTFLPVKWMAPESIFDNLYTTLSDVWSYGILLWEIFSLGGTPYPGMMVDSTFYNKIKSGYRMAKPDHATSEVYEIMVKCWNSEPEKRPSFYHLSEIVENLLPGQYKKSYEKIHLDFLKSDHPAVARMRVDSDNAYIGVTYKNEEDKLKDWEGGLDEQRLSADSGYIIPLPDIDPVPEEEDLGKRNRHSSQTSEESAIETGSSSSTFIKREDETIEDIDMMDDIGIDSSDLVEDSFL
# [8] = target: Death-associated protein kinase 3 (Homo sapiens, UniProt O43293); format: functional;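 note: measured as one member of a kinome-wide profiling panel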
# Death-associated protein kinase 3, sequence (O43293 whole entry): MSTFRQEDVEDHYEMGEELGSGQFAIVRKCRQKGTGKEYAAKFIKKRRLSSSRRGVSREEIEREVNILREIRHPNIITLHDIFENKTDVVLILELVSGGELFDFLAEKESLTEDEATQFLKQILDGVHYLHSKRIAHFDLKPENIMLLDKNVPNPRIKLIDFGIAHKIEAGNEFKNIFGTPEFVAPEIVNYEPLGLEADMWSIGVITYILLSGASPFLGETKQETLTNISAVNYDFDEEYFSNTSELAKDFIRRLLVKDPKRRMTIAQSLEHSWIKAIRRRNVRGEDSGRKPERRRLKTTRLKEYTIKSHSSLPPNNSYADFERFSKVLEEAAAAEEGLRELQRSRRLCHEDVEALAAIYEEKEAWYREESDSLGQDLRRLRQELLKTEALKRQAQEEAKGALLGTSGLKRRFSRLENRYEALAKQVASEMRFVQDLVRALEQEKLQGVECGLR
# [9] = target: T1, Replicative DNA helicase DnaB (Mycobacterium tuberculosis, UniProt P9WMR3); assay: DnaB intein splicing inhibitors, dose response, biochemical, cell-free fluorescence (AID 449749); format: functional
# T1 sequence (P9WMR3 whole entry): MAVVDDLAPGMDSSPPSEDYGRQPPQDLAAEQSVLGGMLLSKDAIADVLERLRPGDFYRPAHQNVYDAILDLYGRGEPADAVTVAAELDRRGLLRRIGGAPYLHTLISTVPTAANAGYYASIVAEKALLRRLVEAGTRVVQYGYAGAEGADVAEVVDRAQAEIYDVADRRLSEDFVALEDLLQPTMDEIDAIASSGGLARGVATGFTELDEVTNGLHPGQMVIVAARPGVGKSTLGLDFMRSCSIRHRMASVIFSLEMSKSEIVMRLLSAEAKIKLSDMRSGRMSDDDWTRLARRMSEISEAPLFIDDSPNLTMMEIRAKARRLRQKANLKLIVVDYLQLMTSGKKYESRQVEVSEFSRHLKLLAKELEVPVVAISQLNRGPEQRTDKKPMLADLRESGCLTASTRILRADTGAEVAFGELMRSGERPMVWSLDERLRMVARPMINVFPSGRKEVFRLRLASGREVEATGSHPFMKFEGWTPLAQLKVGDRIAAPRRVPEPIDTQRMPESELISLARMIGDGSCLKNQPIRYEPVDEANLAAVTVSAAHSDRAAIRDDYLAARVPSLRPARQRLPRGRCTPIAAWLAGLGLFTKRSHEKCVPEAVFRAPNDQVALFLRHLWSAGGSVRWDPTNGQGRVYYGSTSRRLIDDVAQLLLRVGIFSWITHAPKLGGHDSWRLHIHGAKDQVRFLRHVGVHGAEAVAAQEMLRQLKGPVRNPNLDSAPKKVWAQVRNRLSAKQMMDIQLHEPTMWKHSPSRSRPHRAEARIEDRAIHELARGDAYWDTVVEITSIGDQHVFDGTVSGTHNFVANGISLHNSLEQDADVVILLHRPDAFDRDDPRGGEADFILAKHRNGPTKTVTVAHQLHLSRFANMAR
# [10] = target: T2, 1-phosphatidylinositol 4,5-bisphosphate phosphodiesterase gamma-1 (Homo sapiens, UniProt P19174); assay: Counterscreen for inhibitors of phospholipase C isozymes (PLC-B3): Fluorescence-based biochemical high throughput dose response assay to identify inhibitors of phospholipase C isozymes (PLC-gamma1).
# T2 sequence (P19174 whole entry): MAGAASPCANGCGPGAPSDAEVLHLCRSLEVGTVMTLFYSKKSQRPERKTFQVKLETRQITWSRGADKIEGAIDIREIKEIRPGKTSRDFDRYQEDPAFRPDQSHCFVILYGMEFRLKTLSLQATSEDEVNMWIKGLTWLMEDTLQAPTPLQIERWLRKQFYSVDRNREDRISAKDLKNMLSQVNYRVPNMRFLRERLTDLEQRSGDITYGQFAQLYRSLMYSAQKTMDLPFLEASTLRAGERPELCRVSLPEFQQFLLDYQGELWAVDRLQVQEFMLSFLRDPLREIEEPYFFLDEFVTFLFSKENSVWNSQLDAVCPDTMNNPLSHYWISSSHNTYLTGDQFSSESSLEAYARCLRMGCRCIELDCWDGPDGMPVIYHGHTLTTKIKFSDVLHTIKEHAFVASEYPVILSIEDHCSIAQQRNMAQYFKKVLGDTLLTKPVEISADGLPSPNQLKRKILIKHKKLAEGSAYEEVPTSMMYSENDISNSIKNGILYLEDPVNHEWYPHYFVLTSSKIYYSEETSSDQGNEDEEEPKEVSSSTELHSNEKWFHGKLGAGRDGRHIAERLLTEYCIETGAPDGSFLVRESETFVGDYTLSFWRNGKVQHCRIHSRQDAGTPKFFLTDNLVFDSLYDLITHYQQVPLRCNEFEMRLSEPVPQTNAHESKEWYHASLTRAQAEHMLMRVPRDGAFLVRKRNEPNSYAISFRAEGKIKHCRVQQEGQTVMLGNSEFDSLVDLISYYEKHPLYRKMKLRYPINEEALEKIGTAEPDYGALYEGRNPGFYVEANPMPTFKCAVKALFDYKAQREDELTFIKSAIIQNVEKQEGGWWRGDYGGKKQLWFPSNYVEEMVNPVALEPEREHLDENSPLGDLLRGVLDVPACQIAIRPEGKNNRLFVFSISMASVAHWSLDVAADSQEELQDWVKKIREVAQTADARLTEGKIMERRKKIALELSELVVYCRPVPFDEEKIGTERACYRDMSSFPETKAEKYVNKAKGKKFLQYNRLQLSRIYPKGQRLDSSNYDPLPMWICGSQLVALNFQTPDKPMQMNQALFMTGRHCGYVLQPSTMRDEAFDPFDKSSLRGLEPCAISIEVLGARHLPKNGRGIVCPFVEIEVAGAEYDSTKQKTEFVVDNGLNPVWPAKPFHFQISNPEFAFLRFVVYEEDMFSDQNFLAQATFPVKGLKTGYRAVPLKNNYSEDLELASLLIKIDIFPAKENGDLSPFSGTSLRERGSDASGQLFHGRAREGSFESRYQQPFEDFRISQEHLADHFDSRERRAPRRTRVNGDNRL
# Dual specificity mitogen-activated protein kinase kinase 2, sequence (P36507 whole entry): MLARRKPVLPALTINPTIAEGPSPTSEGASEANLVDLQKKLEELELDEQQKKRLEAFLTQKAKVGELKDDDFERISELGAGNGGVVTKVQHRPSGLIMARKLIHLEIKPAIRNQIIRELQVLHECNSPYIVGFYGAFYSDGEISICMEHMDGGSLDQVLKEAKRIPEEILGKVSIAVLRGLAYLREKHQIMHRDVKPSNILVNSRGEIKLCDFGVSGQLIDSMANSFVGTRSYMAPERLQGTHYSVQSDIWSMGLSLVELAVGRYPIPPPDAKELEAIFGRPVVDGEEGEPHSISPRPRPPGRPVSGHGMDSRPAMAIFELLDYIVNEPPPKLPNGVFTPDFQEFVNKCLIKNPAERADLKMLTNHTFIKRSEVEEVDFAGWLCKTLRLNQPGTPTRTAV
# Aurora kinase A, sequence (O14965 whole entry): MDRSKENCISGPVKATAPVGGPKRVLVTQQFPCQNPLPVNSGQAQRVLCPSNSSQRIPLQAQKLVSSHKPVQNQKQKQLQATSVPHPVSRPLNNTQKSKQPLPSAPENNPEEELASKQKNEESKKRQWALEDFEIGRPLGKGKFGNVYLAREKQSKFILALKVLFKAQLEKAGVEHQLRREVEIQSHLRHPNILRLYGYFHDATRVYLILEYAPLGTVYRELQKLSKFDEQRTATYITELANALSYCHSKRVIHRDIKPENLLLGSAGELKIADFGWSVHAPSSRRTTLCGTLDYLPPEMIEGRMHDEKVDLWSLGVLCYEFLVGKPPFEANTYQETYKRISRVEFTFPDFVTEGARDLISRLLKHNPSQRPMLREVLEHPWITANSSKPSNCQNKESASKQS
smiles,measurement,setting,value
Cc1ccc(-c2cc3nc(Br)cnc3[nH]2)cc1,Ki,[1],> 3.98 µM (inactive)
same,Ki,[2],> 1.58 µM (inactive)
same,Ki,[3],> 3.16 µM (inactive)
same,Ki,[4],> 3.98 µM (inactive)
same,Ki,[5],> 2.51 µM (inactive)
same,Ki,[6],> 5.01 µM (inactive)
same,Ki,[7],> 2.51 µM (inactive)
same,Ki,[8],> 5.01 µM (inactive)
CC1(C)C=C2C(=NN(c3ccccc3)C(N)=C2C#N)CO1,AC50,[9],> 380 µM (inconclusive)
O=C1C=C(O)c2c(O)cc(O)c(O)c2C1=O,IC50,[10],> 40.8 µM (inactive)
